How the values were obtained:
Assay in all cases: Test C preemergence
Format in all cases: in vivo
[1] = test system: Italian ryegrass (Lolium multiflorum); details: Lolium multiflorum, pre-emergence, 336 h, scale 0 to 100, read-out: Plant response rating, Ryegrass, Italian
Method in brief: (§1)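 Seeds in loam-sand soil were treated preemergence, and plants at the 1- to 4-leaf stage (2-18 cm) in peat-based medium were sprayed postemergence, with test chemicals in a non-phytotoxic solvent containing surfactant. After 13-15 days in a greenhouse, response was rated visually against controls from 0 (no effect) to 100 (complete control).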

[2] = test system: blackgrass (Alopecurus myosuroides); details: Alopecurus myosuroides, pre-emergence, 336 h, scale 0 to 100, read-out: Plant response rating, Blackgrass
Method in brief: as §1

[3] = test system: corn (Zea mays); details: Zea mays, pre-emergence, 336 h, scale 0 to 100
Method in brief: as §1

[4] = test system: giant foxtail (Setaria faberii); details: Setaria faberi, pre-emergence, 336 h, scale 0 to 100, read-out: Plant response rating, Foxtail, Giant
Method in brief: as §1

[5] = test system: lambsquarters (Chenopodium album); details: Chenopodium album, pre-emergence, 336 h, scale 0 to 100, read-out: Plant response rating, Lambsquarters
Method in brief: as §1

[6] = test system: large (Lg) crabgrass (Digitaria sanguinalis); details: Digitaria sanguinalis, pre-emergence, 336 h, scale 0 to 100, read-out: Plant response rating, Crabgrass, Large
Method in brief: as §1

[7] = test system: morningglory (Ipomoea coccinea); details: Ipomoea, pre-emergence, 336 h, scale 0 to 100, read-out: Plant response rating, Morningglory
Method in brief: as §1

[8] = test system: oilseed rape (Brassica napus); details: Brassica napus, pre-emergence, scale 0 to 100, read-out: Plant response rating, Oilseed Rape
Method in brief: as §1

[9] = test system: pigweed (Amaranthus retroflexus); details: Amaranthus retroflexus, pre-emergence, 336 h, scale 0 to 100, read-out: Plant response rating, Pigweed
Method in brief: as §1

[10] = test system: ragweed (common ragweed, Ambrosia elatior); details: Ambrosia artemisiifolia, pre-emergence, 336 h, scale 0 to 100, read-out: Plant response rating, Ragweed
Method in brief: as §1

[11] = test system: soybean (Glycine max); details: Glycine max, pre-emergence, scale 0 to 100, read-out: Plant response rating, Soybean
Method in brief: as §1

[12] = test system: velvetleaf (Abutilon theophrasti); details: Abutilon theophrasti, pre-emergence, scale 0 to 100, read-out: Plant response rating, Velvetleaf
Method in brief: as §1

[13] = test system: waterhemp (common waterhemp, Amaranthus rudis); details: Amaranthus tuberculatus, pre-emergence, scale 0 to 100, read-out: Plant response rating, Waterhemp
Method in brief: as §1

[14] = test system: winter wheat (Triticum aestivum); details: Triticum aestivum, pre-emergence, 336 h, scale 0 to 100, read-out: Plant response rating, Wheat
Method in brief: as §1

[15] = test system: yellow nutsedge (Cyperus esculentus); details: Cyperus, pre-emergence, 336 h, scale 0 to 100, read-out: Plant response rating, Nutsedge, Yellow
Method in brief: as §1

Compound: Fc1cccc(Oc2ncc(Cl)cn2)c1Oc1ncc(C(F)(F)F)cn1 [Compound 43, 5-chloro-2-[5-fluoro-6-[[5-(trifluoromethyl)-2-pyrimidinyl]oxy]phenoxy]pyrimidine]
- pest or weed control at 31 g/ha ([1]; 31 g ai/ha, preemergence): 50%
- pest or weed control at 62 g/ha ([1]; 62 g ai/ha, preemergence): 85%
- pest or weed control at 125 g/ha ([1]; 125 g ai/ha, preemergence): 95%
- pest or weed control at 16 g/ha ([1]; Preemergence, 16 g ai/ha): 5%
- pest or weed control at 31 g/ha ([2]; 31 g ai/ha, preemergence): 50%
- pest or weed control at 62 g/ha ([2]; 62 g ai/ha, preemergence): 90%
- pest or weed control at 125 g/ha ([2]; 125 g ai/ha, preemergence): 95%
- pest or weed control at 16 g/ha ([2]; Preemergence, 16 g ai/ha): 40%
- Corn plant response rating (crop injury, 0 = no effect, 100 = complete kill) at 31 g/ha ([3]; 31 g ai/ha, preemergence): 20%
- Corn plant response rating (crop injury, 0 = no effect, 100 = complete kill) at 62 g/ha ([3]; 62 g ai/ha, preemergence): 65%
- Corn plant response rating (crop injury, 0 = no effect, 100 = complete kill) at 125 g/ha ([3]; 125 g ai/ha, preemergence): 90%
- Corn plant response rating (crop injury, 0 = no effect, 100 = complete kill) at 16 g/ha ([3]; Preemergence, 16 g ai/ha): 20%
- pest or weed control at 31 g/ha ([4]; 31 g ai/ha, preemergence): 100%
- pest or weed control at 62 g/ha ([4]; 62 g ai/ha, preemergence): 100%
- pest or weed control at 125 g/ha ([4]; 125 g ai/ha, preemergence): 100%
- pest or weed control at 16 g/ha ([4]; Preemergence, 16 g ai/ha): 95%
- pest or weed control at 31 g/ha ([5]; 31 g ai/ha, preemergence): 100%
- pest or weed control at 62 g/ha ([5]; 62 g ai/ha, preemergence): 100%
- pest or weed control at 125 g/ha ([5]; 125 g ai/ha, preemergence): 100%
- pest or weed control at 16 g/ha ([5]; Preemergence, 16 g ai/ha): 100%
- pest or weed control at 31 g/ha ([6]; 31 g ai/ha, preemergence): 100%
- pest or weed control at 62 g/ha ([6]; 62 g ai/ha, preemergence): 100%
- pest or weed control at 125 g/ha ([6]; 125 g ai/ha, preemergence): 100%
- pest or weed control at 16 g/ha ([6]; Preemergence, 16 g ai/ha): 100%
- pest or weed control at 31 g/ha ([7]; 31 g ai/ha, preemergence): 85%
- pest or weed control at 62 g/ha ([7]; 62 g ai/ha, preemergence): 100%
- pest or weed control at 125 g/ha ([7]; 125 g ai/ha, preemergence): 100%
- pest or weed control at 16 g/ha ([7]; Preemergence, 16 g ai/ha): 70%
- plant injury at 31 g/ha ([8]; 31 g ai/ha, preemergence): 100%
- plant injury at 62 g/ha ([8]; 62 g ai/ha, preemergence): 100%
- plant injury at 125 g/ha ([8]; 125 g ai/ha, preemergence): 100%
- plant injury at 16 g/ha ([8]; Preemergence, 16 g ai/ha): 95%
- pest or weed control at 31 g/ha ([9]; 31 g ai/ha, preemergence): 100%
- pest or weed control at 62 g/ha ([9]; 62 g ai/ha, preemergence): 100%
- pest or weed control at 125 g/ha ([9]; 125 g ai/ha, preemergence): 100%
- pest or weed control at 16 g/ha ([9]; Preemergence, 16 g ai/ha): 100%
- pest or weed control at 31 g/ha ([10]; 31 g ai/ha, preemergence): 80%
- pest or weed control at 62 g/ha ([10]; 62 g ai/ha, preemergence): 100%
- pest or weed control at 125 g/ha ([10]; 125 g ai/ha, preemergence): 90%
- pest or weed control at 16 g/ha ([10]; Preemergence, 16 g ai/ha): 35%
- plant injury at 31 g/ha ([11]; 31 g ai/ha, preemergence): 45%
- plant injury at 62 g/ha ([11]; 62 g ai/ha, preemergence): 75%
- plant injury at 125 g/ha ([11]; 125 g ai/ha, preemergence): 90%
- plant injury at 16 g/ha ([11]; Preemergence, 16 g ai/ha): 30%
- pest or weed control at 31 g/ha ([12]; 31 g ai/ha, preemergence): 100%
- pest or weed control at 62 g/ha ([12]; 62 g ai/ha, preemergence): 100%
- pest or weed control at 125 g/ha ([12]; 125 g ai/ha, preemergence): 100%
- pest or weed control at 16 g/ha ([12]; Preemergence, 16 g ai/ha): 100%
- pest or weed control at 31 g/ha ([13]; 31 g ai/ha, preemergence): 100%
- pest or weed control at 62 g/ha ([13]; 62 g ai/ha, preemergence): 100%
- pest or weed control at 125 g/ha ([13]; 125 g ai/ha, preemergence): 100%
- pest or weed control at 16 g/ha ([13]; Preemergence, 16 g ai/ha): 85%
- plant injury at 31 g/ha ([14]; 31 g ai/ha, preemergence): 25%
- plant injury at 62 g/ha ([14]; 62 g ai/ha, preemergence): 40%
- plant injury at 125 g/ha ([14]; 125 g ai/ha, preemergence): 90%
- plant injury at 16 g/ha ([14]; Preemergence, 16 g ai/ha): 5%
- pest or weed control at 31 g/ha ([15]; 31 g ai/ha, preemergence): 0%
- pest or weed control at 62 g/ha ([15]; 62 g ai/ha, preemergence): 35%
- pest or weed control at 125 g/ha ([15]; 125 g ai/ha, preemergence): 60%
- pest or weed control at 16 g/ha ([15]; Preemergence, 16 g ai/ha): 100%

Reference: patent US20170190671A1, “BIS(ARYL)CATECHOL DERIVATIVES AS HERBICIDES” (E I DU PONT DE NEMOURS AND COMPANY, priority 2014, published 2017)
